Patent EP0726951B1, “MANUFACTURE AND USE OF POLYPEPTIDES TAGGED USING BINDING MOLECULES” (MEDICAL RESEARCH COUNCIL, priority 1993, dated 1995)

Tests used:
[1] = target: T1, calmodulin (Homo sapiens, UniProt P0DP23); test: native gel autoradiography of calmodulin with radiolabelled melatonin; format: binding; details: 15% polyacrylamide gel, 0.5mM CaCl2, no SDS
Procedure: In order to assess this, 1µl calmodulin (lmg/ml) was incubated with 1µCi 2-[^125I]-melatonin in 9µl TBSC and run on a 15% polyacrylamide gel. The gel was as the running gel of Laemmli (Nature 1970 220 680-685), but with 0.5mM CaCl2 and no SDS in both gel and buffer.

[2] = target: T1, calmodulin; details: published value; cited from earlier work
[3] = target: T1, calmodulin; details: cited from earlier work

Compound	radioactive band of complex with calmodulin [1]	half-life of the calmodulin-melatonin complex [2] [min]	Ka ([3]; affinity for calmodulin) [M⁻¹]	Kd ([3]; binds calmodulin) [nM]
COc1ccc2[nH]cc(CCNC(C)=O)c2c1 [melatonin]	no complex is detected	2	–	–
mastoparan	–	–	3.3e+09	0.3
COc1ccc2[nH]c([125I])c(CCNC(C)=O)c2c1 [2-[^125I]-melatonin]	no radioactive band was detected	–	–	–
